Measured values taken from US10941138B2, “Quinoline and isoquinoline derivatives for treating pain and pain related conditions” (ESTEVE PHARMACEUTICALS, S.A., priority 2016, dated 2021).
Read-outs that look alike come from different tables or passages of the source.

Columns and labels:
[1] = molecular target: human α2δ-1 subunit of Cav2.2 calcium channel (Homo sapiens (Human), UniProt P54289); assay: Binding assay to human α2δ-1 subunit of Cav2.2 calcium channel ([3H]-Gabapentin); conditions: read-out: Ki (nM) alpha2delta Hum
Sequence of human α2δ-1 subunit of Cav2.2 calcium channel (P54289 25-1103): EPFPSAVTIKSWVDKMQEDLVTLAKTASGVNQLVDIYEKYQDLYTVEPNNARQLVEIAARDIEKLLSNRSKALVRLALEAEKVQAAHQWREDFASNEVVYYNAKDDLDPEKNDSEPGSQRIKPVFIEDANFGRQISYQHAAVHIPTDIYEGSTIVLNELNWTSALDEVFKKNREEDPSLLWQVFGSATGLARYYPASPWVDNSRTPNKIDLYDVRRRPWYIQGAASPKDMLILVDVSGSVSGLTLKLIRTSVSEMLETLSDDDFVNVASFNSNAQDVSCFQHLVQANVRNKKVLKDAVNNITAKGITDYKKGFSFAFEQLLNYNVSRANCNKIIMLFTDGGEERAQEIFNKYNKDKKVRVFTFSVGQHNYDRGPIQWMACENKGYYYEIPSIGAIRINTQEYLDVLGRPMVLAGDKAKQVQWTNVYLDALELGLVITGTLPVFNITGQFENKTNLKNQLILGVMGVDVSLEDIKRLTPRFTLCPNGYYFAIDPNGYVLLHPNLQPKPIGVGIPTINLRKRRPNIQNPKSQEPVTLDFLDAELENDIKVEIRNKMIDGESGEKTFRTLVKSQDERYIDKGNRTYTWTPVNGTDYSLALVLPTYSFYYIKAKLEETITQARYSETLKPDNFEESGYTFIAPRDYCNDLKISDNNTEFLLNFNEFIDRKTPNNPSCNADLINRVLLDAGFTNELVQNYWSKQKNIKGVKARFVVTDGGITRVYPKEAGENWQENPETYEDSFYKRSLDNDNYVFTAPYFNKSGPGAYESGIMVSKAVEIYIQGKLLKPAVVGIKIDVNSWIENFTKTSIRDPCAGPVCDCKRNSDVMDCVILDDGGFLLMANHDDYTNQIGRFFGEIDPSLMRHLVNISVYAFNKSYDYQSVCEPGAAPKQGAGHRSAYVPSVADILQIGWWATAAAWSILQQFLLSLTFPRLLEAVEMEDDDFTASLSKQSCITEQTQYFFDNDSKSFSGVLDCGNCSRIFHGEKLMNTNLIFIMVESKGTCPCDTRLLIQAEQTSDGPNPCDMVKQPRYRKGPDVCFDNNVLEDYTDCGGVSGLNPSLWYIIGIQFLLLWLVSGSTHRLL
Description: Binding Assay to Human α2δ-1 Subunit of Cav2.2 Calcium Channel.
Human α2δ-1 enriched membranes (2.5 μg) were incubated with 15 nM of radiolabeled [3H]-Gabapentin in assay buffer containing Hepes-KOH 10 mM, pH 7.4.
NSB (non specific binding) was measured by adding 10 μM pregabalin. The binding of the test compound was measured at five different concentrations. After 60 min incubation at 27° C., binding reaction was terminated by filtering through Multiscreen GF/C (Millipore) presoaked in 0.5% polyethyleneimine in Vacuum Manifold Station, followed by 3 washes with ice-cold filtration buffer containing 50 mM Tris-HCl, pH 7.4. Filter plates were dried at 60° C. for 1 h and 30 μl of scintillation cocktail were added to each well before radioactivity reading.
(§1) Readings were performed in a Trilux 1450 Microbeta radioactive counter (Perkin Elmer).

[2] = molecular target: human norepinephrine transporter (NET) (Homo sapiens (Human), UniProt P23975); assay: Binding assay to human norepinephrine transporter (NET) ([3H]-Nisoxetin); conditions: Table 2, dual compounds, human NET enriched membranes, read-out: Ki (nM) NET Hum
Sequence of human norepinephrine transporter (NET) (P23975 whole entry): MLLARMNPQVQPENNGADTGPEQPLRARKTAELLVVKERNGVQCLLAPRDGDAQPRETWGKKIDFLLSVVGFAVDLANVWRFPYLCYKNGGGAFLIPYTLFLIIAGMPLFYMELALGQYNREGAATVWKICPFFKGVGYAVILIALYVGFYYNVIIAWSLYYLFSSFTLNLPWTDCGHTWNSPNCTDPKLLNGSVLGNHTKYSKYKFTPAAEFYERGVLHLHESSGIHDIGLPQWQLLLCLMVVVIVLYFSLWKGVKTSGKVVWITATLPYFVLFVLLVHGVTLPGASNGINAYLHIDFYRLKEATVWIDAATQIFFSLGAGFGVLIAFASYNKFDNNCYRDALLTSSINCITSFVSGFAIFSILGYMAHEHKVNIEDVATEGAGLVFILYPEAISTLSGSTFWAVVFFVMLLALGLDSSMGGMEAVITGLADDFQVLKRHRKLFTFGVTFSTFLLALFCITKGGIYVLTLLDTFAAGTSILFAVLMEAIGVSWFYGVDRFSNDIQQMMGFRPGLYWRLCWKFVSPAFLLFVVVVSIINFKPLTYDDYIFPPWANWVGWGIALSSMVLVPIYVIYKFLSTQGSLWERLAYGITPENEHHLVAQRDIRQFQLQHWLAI
Description: Binding Assay to Human Norepinephrine Transporter (NET).
Human norepinephrine transporter (NET) enriched membranes (5 μg) were incubated with 5 nM of radiolabeled [3H]-Nisoxetin in assay buffer containing 50 mM Tris-HCl, 120 mM NaCl, 5 mM KCl, pH 7.4.
NSB (non specific binding) was measured by adding desipramine 10 μM. The binding of the test compound was measured at five different concentrations. After 60 min incubation at 4° C., binding reaction was terminated by filtering through Multiscreen GF/C (Millipore) presoaked in 0.5% polyethyleneimine in Vacuum Manifold Station, followed by 3 washes with ice-cold filtration buffer containing 50 mM Tris-HCl, 0.9% NaCl, pH 7.4.
Filter plates were dried at 60° C. for 1 h and 30 μl of scintillation cocktail were added to each well before radioactivity reading.
as §1

[3] = Table 1, human α2δ-1 enriched membranes
[4] = Table 2, dual compounds, human α2δ-1 enriched membranes

CNCC[C@@H](Oc1cccc2cnccc12)c1cccs1 [Example 14, (R)-3-(isoquinolin-5-yloxy)-N-methyl-3-(thiophen-2-yl)propan-1-amine]
Ki [1, 3]: 100 to 500 nM | Ki [1, 4]: 100 to 500 nM | Ki [2]: 100 to 500 nM

CNCCC(Oc1cccc2ncccc12)c1ccc(Cl)s1 (stereo not drawn) [Example 41, 3-(5-chlorothiophen-2-yl)-N-methyl-3-(quinolin-5-yloxy)propan-1-amine]
Ki [1, 3]: 100 to 500 nM | Ki [1, 4]: 100 to 500 nM | Ki [2]: 100 to 500 nM

CNCCC(Oc1cccc2cnccc12)C1CCOCC1 (stereo not drawn) [Example 18, 3-(isoquinolin-5-yloxy)-N-methyl-3-(tetrahydro-2H-pyran-4-yl)propan-1-amine]
Ki [1, 3]: ≥ 3000 nM | Ki [1, 4]: ≥ 3000 nM | Ki [2]: 100 to 500 nM

CNCC[C@@H](Oc1cccc2ccncc12)c1ccc(F)s1 [Example 81, (R)-3-(5-fluorothiophen-2-yl)-3-(isoquinolin-8-yloxy)-N-methylpropan-1-amine]
Ki [1, 3]: 100 to 500 nM | Ki [1, 4]: 100 to 500 nM | Ki [2]: 100 to 500 nM

CNCCC(Oc1cccc2cnccc12)c1ccsc1 (stereo not drawn) [Example 56, 3-(isoquinolin-5-yloxy)-N-methyl-3-(thiophen-3-yl)propan-1-amine]
Ki [1, 3]: 100 to 500 nM | Ki [1, 4]: 100 to 500 nM | Ki [2]: < 100 nM

CNCC[C@H](Oc1cccc2ncccc12)c1cccs1 [Example 9, (S)-N-methyl-3-(quinolin-5-yloxy)-3-(thiophen-2-yl)propan-1-amine]
Ki [1, 3]: < 100 nM | Ki [1, 4]: < 100 nM | Ki [2]: 500 to 1000 nM

CNCCC(Oc1cccc2ccncc12)c1ccc(F)s1 (stereo not drawn) [Example 49, 3-(5-fluorothiophen-2-yl)-3-(isoquinolin-8-yloxy)-N-methylpropan-1-amine]
Ki [1, 3]: 100 to 500 nM | Ki [1, 4]: 100 to 500 nM | Ki [2]: 100 to 500 nM

CNCC[C@H](Oc1cccc2ncccc12)c1ccc(F)s1 [Example 51, (S)-3-(5-fluorothiophen-2-yl)-N-methyl-3-(quinolin-5-yloxy)propan-1-amine]
Ki [1, 3]: 100 to 500 nM | Ki [1, 4]: 100 to 500 nM | Ki [2]: 100 to 500 nM

CNCCC(Oc1ccc2ccncc2c1)c1cccs1 (stereo not drawn) [Example 74, 3-(isoquinolin-7-yloxy)-N-methyl-3-(thiophen-2-yl)propan-1-amine]
Ki [1, 3]: ≥ 3000 nM | Ki [1, 4]: ≥ 3000 nM | Ki [2]: 100 to 500 nM

CNCCC(Oc1cccc2ncccc12)c1ccc(F)s1 (stereo not drawn) [Example 42, 3-(5-fluorothiophen-2-yl)-N-methyl-3-(quinolin-5-yloxy)propan-1-amine]
Ki [1, 3]: < 100 nM | Ki [1, 4]: < 100 nM | Ki [2]: 100 to 500 nM

CNCC[C@H](Oc1cccc2ccncc12)c1ccsc1 [Example 69, (S)-3-(isoquinolin-8-yloxy)-N-methyl-3-(thiophen-3-yl)propan-1-amine]
Ki [1, 3]: ≥ 3000 nM | Ki [1, 4]: ≥ 3000 nM | Ki [2]: 500 to 1000 nM

CNCC[C@@H](Oc1cccc2ncccc12)c1ccc(Cl)s1 [Example 79, (R)-3-(5-chlorothiophen-2-yl)-N-methyl-3-(quinolin-5-yloxy)propan-1-amine]
Ki [1, 3]: < 100 nM | Ki [1, 4]: < 100 nM | Ki [2]: 500 to 1000 nM

CNCC[C@H](Oc1cccc2ccncc12)c1sccc1F [Example 86, (S)-3-(3-Fluorothiophen-2-yl)-3-(isoquinolin-8-yloxy)-N-methylpropan-1-amine]
Ki [1, 3]: ≥ 3000 nM | Ki [1, 4]: ≥ 3000 nM | Ki [2]: 100 to 500 nM

CNCCC(Oc1cccc2cnccc12)c1cccnc1 (stereo not drawn) [Example 17, 3-(isoquinolin-5-yloxy)-N-methyl-3-(pyridin-3-yl)propan-1-amine]
Ki [1, 3]: ≥ 3000 nM | Ki [1, 4]: ≥ 3000 nM | Ki [2]: 100 to 500 nM

CNCCC(Oc1cccc2ncccc12)c1cccs1 (stereo not drawn) [Example 2, N-methyl-3-(quinolin-5-yloxy)-3-(thiophen-2-yl)propan-1-amine]
Ki [1, 3]: 100 to 500 nM | Ki [1, 4]: 100 to 500 nM | Ki [2]: 100 to 500 nM

CNCC[C@H](Oc1cccc2cnccc12)c1sccc1F [Example 82, (S)-3-(3-Fluorothiophen-2-yl)-3-(isoquinolin-5-yloxy)-N-methylpropan-1-amine]
Ki [1, 3]: ≥ 3000 nM | Ki [1, 4]: ≥ 3000 nM | Ki [2]: < 100 nM

CNCC[C@@H](Oc1cccc2cnccc12)c1sccc1F [Example 83, (R)-3-(3-fluorothiophen-2-yl)-3-(isoquinolin-5-yloxy)-N-methylpropan-1-amine]
Ki [1, 3]: 100 to 500 nM | Ki [1, 4]: 100 to 500 nM | Ki [2]: 100 to 500 nM

CNCCC(Oc1cccc2ccncc12)c1ccsc1 (stereo not drawn) [Example 58, 3-(isoquinolin-8-yloxy)-N-methyl-3-(thiophen-3-yl)propan-1-amine]
Ki [1, 3]: 100 to 500 nM | Ki [1, 4]: 100 to 500 nM | Ki [2]: 500 to 1000 nM

CNCCC(Oc1cccc2ccncc12)c1cc(C(F)(F)F)ccn1 (stereo not drawn) [Example 30, 3-(isoquinolin-8-yloxy)-N-methyl-3-(4-(trifluoromethyl)pyridin-2-yl)propan-1-amine]
Ki [1, 3]: ≥ 3000 nM | Ki [1, 4]: ≥ 3000 nM | Ki [2]: 500 to 1000 nM

CNCCC(Oc1ccc2cnccc2c1)c1cccs1 (stereo not drawn) [Example 54, 3-(isoquinolin-6-yloxy)-N-methyl-3-(thiophen-2-yl)propan-1-amine]
Ki [1, 3]: 500 to 3000 nM | Ki [1, 4]: 500 to 3000 nM | Ki [2]: 100 to 500 nM

CNCC[C@H](Oc1cccc2ncccc12)c1sccc1F [Example 84, (S)-3-(3-Fluorothiophen-2-yl)-N-methyl-3-(quinolin-5-yloxy)propan-1-amine]
Ki [1, 3]: 500 to 3000 nM | Ki [1, 4]: 500 to 3000 nM | Ki [2]: 100 to 500 nM

CNCC[C@@H](Oc1cccc2ncccc12)c1sccc1F [Example 85, (R)-3-(3-fluorothiophen-2-yl)-N-methyl-3-(quinolin-5-yloxy)propan-1-amine]
Ki [1, 3]: 500 to 3000 nM | Ki [1, 4]: 500 to 3000 nM | Ki [2]: 100 to 500 nM

CNCC[C@@H](Oc1cccc2ccncc12)c1cccs1 [Example 13, (R)-3-(isoquinolin-8-yloxy)-N-methyl-3-(thiophen-2-yl)propan-1-amine]
Ki [1, 3]: 100 to 500 nM | Ki [1, 4]: 100 to 500 nM | Ki [2]: 100 to 500 nM

CNCC[C@@H](Oc1cccc2cnccc12)c1ccc(F)s1 [Example 52, (R)-3-(5-fluorothiophen-2-yl)-3-(isoquinolin-5-yloxy)-N-methylpropan-1-amine]
Ki [1, 3]: < 100 nM | Ki [1, 4]: < 100 nM | Ki [2]: 100 to 500 nM

CNCC[C@@H](Oc1cccc2ccncc12)c1sccc1F [Example 87, (R)-3-(3-fluorothiophen-2-yl)-3-(isoquinolin-8-yloxy)-N-methylpropan-1-amine]
Ki [1, 3]: 100 to 500 nM | Ki [1, 4]: 100 to 500 nM | Ki [2]: 100 to 500 nM

CNCC[C@H](Oc1cccc2cnccc12)c1cccs1 [Example 11, (S)-3-(isoquinolin-5-yloxy)-N-methyl-3-(thiophen-2-yl)propan-1-amine]
Ki [1, 3]: ≥ 3000 nM | Ki [1, 4]: ≥ 3000 nM | Ki [2]: < 100 nM

CNCC[C@H](Oc1cccc2ccncc12)c1cccs1 [Example 10, (S)-3-(isoquinolin-8-yloxy)-N-methyl-3-(thiophen-2-yl)propan-1-amine]
Ki [1, 3]: ≥ 3000 nM | Ki [1, 4]: ≥ 3000 nM | Ki [2]: 500 to 1000 nM

CNCCC(Oc1cccc2ncccc12)c1nccs1 (stereo not drawn) [Example 72, N-methyl-3-(quinolin-5-yloxy)-3-(thiazol-2-yl)propan-1-amine]
Ki [1, 3]: 100 to 500 nM | Ki [1, 4]: 100 to 500 nM | Ki [2]: 500 to 1000 nM

CNCCC(Oc1cccc2cnccc12)c1nccs1 (stereo not drawn) [Example 71, 3-(isoquinolin-5-yloxy)-N-methyl-3-(thiazol-2-yl)propan-1-amine]
Ki [1, 3]: 500 to 3000 nM | Ki [1, 4]: 500 to 3000 nM | Ki [2]: 100 to 500 nM

CNCC[C@@H](Oc1cnc2ccccc2c1)c1cccs1 [Example 94, (R)-N-methyl-3-(quinolin-3-yloxy)-3-(thiophen-2-yl)propan-1-amine]
Ki [1, 3]: ≥ 3000 nM | Ki [1, 4]: ≥ 3000 nM | Ki [2]: 100 to 500 nM

CNCC[C@H](Oc1cccc2cnccc12)c1ccsc1 [Example 68, (S)-3-(isoquinolin-5-yloxy)-N-methyl-3-(thiophen-3-yl)propan-1-amine]
Ki [1, 3]: ≥ 3000 nM | Ki [1, 4]: ≥ 3000 nM | Ki [2]: < 100 nM

CNCC[C@H](Oc1cccc2c(C)nccc12)c1cccs1 [Example 65, (S)-N-methyl-3-((1-methylisoquinolin-5-yl)oxy)-3-(thiophen-2-yl)propan-1-amine]
Ki [1, 3]: ≥ 3000 nM | Ki [1, 4]: ≥ 3000 nM | Ki [2]: 100 to 500 nM

CNCCC(Oc1cccc2cnccc12)c1ccc(F)s1 (stereo not drawn) [Example 45, 3-(5-fluorothiophen-2-yl)-3-(isoquinolin-5-yloxy)-N-methylpropan-1-amine]
Ki [1, 3]: < 100 nM | Ki [1, 4]: < 100 nM | Ki [2]: 100 to 500 nM

CNCC[C@H](Oc1cccc2ncccc12)c1ccc(Cl)s1 [Example 78, (S)-3-(5-Chlorothiophen-2-yl)-N-methyl-3-(quinolin-5-yloxy)propan-1-amine]
Ki [1, 3]: 500 to 3000 nM | Ki [1, 4]: 500 to 3000 nM | Ki [2]: 100 to 500 nM

CNCCC(Oc1cccc2ncccc12)c1sccc1F (stereo not drawn) [Example 48, 3-(3-fluorothiophen-2-yl)-N-methyl-3-(quinolin-5-yloxy)propan-1-amine]
Ki [1, 3]: 100 to 500 nM | Ki [1, 4]: 100 to 500 nM | Ki [2]: 100 to 500 nM
